Source: patent publication US12714696B2, “Low dose fluralaner compositions for protection against parasitic invertebrate pest” (VIRBAC, priority 2019, dated 2026)
Where “and” joins values, the source holds several entries; their conditions need not be identical. Equal values may be shown once. Read-outs that look alike come from different tables or passages of the source.

Test: Pharmacokinetics after repeated oral administration of 250 μg/kg and 35 μg/kg of fluralaner in dogs after feeding
Format: in vivo, beagle dogs
Conditions: for concentration at 24 h / concentration at 48 h / concentration at 72 h / concentration at 96 h / concentration at 120 h / concentration at 144 h / concentration at 168 h: beagle, dog, plasma, po
Method: The first objective is to obtain the pharmacokinetic parameters after repeated oral administration of […] and 35 μg/kg of fluralaner in dogs after feeding.
The second objective is to investigate the pharmacodynamics between the fluralaner plasmatic dose and the effectiveness against ticks. • IVP: Investigational Veterinary Product, is pure Fluralaner+DMSO (250 μg/kg on Days 0 to 3 (0.25 mL/kg), then 35 μg/kg on Days 4 to 9 (0.35 mL/kg), then 600 μg/kg on Day 11) • Control product is DMSO (0.25 mL/kg on Days 0 to 3, then 0.35 mL/kg on Days 4 to 9)
On Days 0, 1, 2 and 3, all dogs assigned to group 2 received the Investigational Veterinary Product. On Days 0 to 3 all dogs in group 1 received the control product at a volume equal to the dogs in group 2. Dogs assigned to group 1 received the control product and served as Placebo controls. The quantity of Investigational Veterinary Product and control product administered was calculated according to the dog's individual body weight measured on Day −1. […]
On days of administration of pre-Investigational Veterinary Product or Control Product, dogs were fed (the same dog food) approximately half of their normal daily ration 30 minutes to 35 minutes prior to administration. Food consumed by the time of administration was calculated and recorded. The remainder of their normal daily ration was fed immediately after administration.
The PK parameters of fluralaner were calculated using a non-compartmental approach.
The following rules were applied for the calculation of the PK parameters: • All the plasma concentrations, validated by the bioanalytical laboratory, were used for the PK analysis. • The actual blood sampling times were used throughout. • Concentrations below the Limit of Quantification (LOQ) value were considered as zero from time zero (pre-dose) up to the time at which the first quantifiable concentration above the LOQ value was observed. Concentrations below the LOQ value between two quantifiable concentrations were considered as missing. Trailing concentrations below the LOQ value were not used in calculations.
Cmax the observed maximum concentration in plasma measured after dosing.
λz the terminal rate constant (λz) was estimated by log-linear regression analysis on data points visually assessed, to be on the terminal log-linear phase. For the slope of the terminal elimination phase to be accepted as reliable, the following criteria were used: • the terminal data points were apparently randomly distributed about a single straight line (on visual inspection), • a minimum of three data points, including the last measured data point and excluding Cmax, were available for the regression.
t1/2 the terminal plasma half-life (t1/2) was calculated according to the following equation: […]

## Cc1cc(C2=NOC(c3cc(Cl)cc(Cl)c3)(C(F)(F)F)C2)ccc1C(=O)NCC(=O)NCC(F)(F)F (stereo not drawn) [fluralaner, Fluralaner]
24 h, oral 250 μg/kg Days 0-3, 35 μg/kg Days 4-9, 600 μg/kg Day 11, dogs
  fluralaner concentration levels, individual animal: 142 ng/mL and 158 ng/mL and 129 ng/mL
48 h, oral 250 μg/kg Days 0-3, 35 μg/kg Days 4-9, 600 μg/kg Day 11, dogs
  fluralaner concentration levels, individual animal: 269 ng/mL and 283 ng/mL and 253 ng/mL
72 h, oral 250 μg/kg Days 0-3, 35 μg/kg Days 4-9, 600 μg/kg Day 11, dogs
  fluralaner concentration levels, individual animal: 381 ng/mL and 378 ng/mL and 373 ng/mL
96 h, oral 250 μg/kg Days 0-3, 35 μg/kg Days 4-9, 600 μg/kg Day 11, dogs
  fluralaner concentration levels, individual animal: 496 ng/mL and 572 ng/mL and 515 ng/mL
120 h, oral 250 μg/kg Days 0-3, 35 μg/kg Days 4-9, 600 μg/kg Day 11, dogs
  fluralaner concentration levels, individual animal: 465 ng/mL and 535 ng/mL and 554 ng/mL
144 h, oral 250 μg/kg Days 0-3, 35 μg/kg Days 4-9, 600 μg/kg Day 11, dogs
  fluralaner concentration levels, individual animal: 510 ng/mL and 447 ng/mL and 454 ng/mL
168 h, oral 250 μg/kg Days 0-3, 35 μg/kg Days 4-9, 600 μg/kg Day 11, dogs
  fluralaner concentration levels, individual animal: 521 ng/mL and 536 ng/mL and 520 ng/mL
192 h, oral 250 μg/kg Days 0-3, 35 μg/kg Days 4-9, 600 μg/kg Day 11, dogs
  fluralaner concentration levels, individual animal: 456 ng/mL and 558 ng/mL and 455 ng/mL
216 h, oral 250 μg/kg Days 0-3, 35 μg/kg Days 4-9, 600 μg/kg Day 11, dogs
  fluralaner concentration levels, individual animal: 468 ng/mL and 551 ng/mL and 472 ng/mL and 493 ng/mL
240 h, oral 250 μg/kg Days 0-3, 35 μg/kg Days 4-9, 600 μg/kg Day 11, dogs
  fluralaner concentration levels, individual animal: 423 ng/mL and 368 ng/mL and 724 ng/mL and 422 ng/mL
384 h, oral 250 μg/kg Days 0-3, 35 μg/kg Days 4-9, 600 μg/kg Day 11, dogs
  fluralaner concentration levels, individual animal: 893 ng/mL and 523 ng/mL and 715 ng/mL and 1000 ng/mL
528 h, oral 250 μg/kg Days 0-3, 35 μg/kg Days 4-9, 600 μg/kg Day 11, dogs
  fluralaner concentration levels, individual animal: 267 ng/mL and 373 ng/mL and 235 ng/mL and 517 ng/mL and 283 ng/mL
624 h, oral 250 μg/kg Days 0-3, 35 μg/kg Days 4-9, 600 μg/kg Day 11, dogs
  fluralaner concentration levels, individual animal: 223 ng/mL and 280 ng/mL and 182 ng/mL and 403 ng/mL and 227 ng/mL
720 h, oral 250 μg/kg Days 0-3, 35 μg/kg Days 4-9, 600 μg/kg Day 11, dogs
  fluralaner concentration levels, individual animal: 285 ng/mL and 275 ng/mL and 248 ng/mL and 187 ng/mL
After the fourth dose application 250 μg/kg per day (on Day 3)
  steady state concentrations: not been reached
24 h, oral 250 μg/kg Days 0-3, 35 μg/kg Days 4-9, 600 μg/kg Day 11, dogs, read-out: fluralaner concentration levels, individual animal
  concentration at 24 h: 160 ng/mL
24 h, oral 250/35/600 μg/kg regimen, dogs, n=6, read-out: fluralaner concentration levels, GeoMean
  concentration at 24 h: 145 ng/mL
24 h, oral 250/35/600 μg/kg regimen, dogs, n=6, read-out: fluralaner concentration levels, Maximum
  concentration at 24 h: 160 ng/mL
24 h, oral 250/35/600 μg/kg regimen, dogs, n=6, read-out: fluralaner concentration levels, Mean
  concentration at 24 h: 146 ng/mL
24 h, oral 250/35/600 μg/kg regimen, dogs, n=6, read-out: fluralaner concentration levels, Median
  concentration at 24 h: 146 ng/mL
24 h, oral 250/35/600 μg/kg regimen, dogs, n=6, read-out: fluralaner concentration levels, Minimum
  concentration at 24 h: 129 ng/mL
48 h, oral 250 μg/kg Days 0-3, 35 μg/kg Days 4-9, 600 μg/kg Day 11, dogs, read-out: fluralaner concentration levels, individual animal
  concentration at 48 h: 257 ng/mL
48 h, oral 250/35/600 μg/kg regimen, dogs, n=6, read-out: fluralaner concentration levels, GeoMean
  concentration at 48 h: 269 ng/mL
48 h, oral 250/35/600 μg/kg regimen, dogs, n=6, read-out: fluralaner concentration levels, Maximum
  concentration at 48 h: 312 ng/mL
48 h, oral 250/35/600 μg/kg regimen, dogs, n=6, read-out: fluralaner concentration levels, Mean
  concentration at 48 h: 270 ng/mL
48 h, oral 250/35/600 μg/kg regimen, dogs, n=6, read-out: fluralaner concentration levels, Median
  concentration at 48 h: 263 ng/mL
48 h, oral 250/35/600 μg/kg regimen, dogs, n=6, read-out: fluralaner concentration levels, Minimum
  concentration at 48 h: 245 ng/mL
72 h, oral 250 μg/kg Days 0-3, 35 μg/kg Days 4-9, 600 μg/kg Day 11, dogs, read-out: fluralaner concentration levels, individual animal
  concentration at 72 h: 366 ng/mL
72 h, oral 250/35/600 μg/kg regimen, dogs, n=6, read-out: fluralaner concentration levels, GeoMean
  concentration at 72 h: 386 ng/mL
72 h, oral 250/35/600 μg/kg regimen, dogs, n=6, read-out: fluralaner concentration levels, Maximum
  concentration at 72 h: 469 ng/mL
72 h, oral 250/35/600 μg/kg regimen, dogs, n=6, read-out: fluralaner concentration levels, Mean
  concentration at 72 h: 388 ng/mL
72 h, oral 250/35/600 μg/kg regimen, dogs, n=6, read-out: fluralaner concentration levels, Median
  concentration at 72 h: 376 ng/mL
72 h, oral 250/35/600 μg/kg regimen, dogs, n=6, read-out: fluralaner concentration levels, Minimum
  concentration at 72 h: 361 ng/mL
96 h, oral 250 μg/kg Days 0-3, 35 μg/kg Days 4-9, 600 μg/kg Day 11, dogs, read-out: fluralaner concentration levels, individual animal
  concentration at 96 h: 497 ng/mL
96 h, oral 250/35/600 μg/kg regimen, dogs, n=6, read-out: fluralaner concentration levels, GeoMean
  concentration at 96 h: 524 ng/mL
96 h, oral 250/35/600 μg/kg regimen, dogs, n=6, read-out: fluralaner concentration levels, Maximum
  concentration at 96 h: 602 ng/mL
96 h, oral 250/35/600 μg/kg regimen, dogs, n=6, read-out: fluralaner concentration levels, Mean
  concentration at 96 h: 526 ng/mL
96 h, oral 250/35/600 μg/kg regimen, dogs, n=6, read-out: fluralaner concentration levels, Median
  concentration at 96 h: 506 ng/mL
96 h, oral 250/35/600 μg/kg regimen, dogs, n=6, read-out: fluralaner concentration levels, Minimum
  concentration at 96 h: 471 ng/mL
120 h, oral 250 μg/kg Days 0-3, 35 μg/kg Days 4-9, 600 μg/kg Day 11, dogs, read-out: fluralaner concentration levels, individual animal
  concentration at 120 h: 495 ng/mL
120 h, oral 250/35/600 μg/kg regimen, dogs, n=6, read-out: fluralaner concentration levels, GeoMean
  concentration at 120 h: 508 ng/mL
120 h, oral 250/35/600 μg/kg regimen, dogs, n=6, read-out: fluralaner concentration levels, Maximum
  concentration at 120 h: 554 ng/mL
120 h, oral 250/35/600 μg/kg regimen, dogs, n=6, read-out: fluralaner concentration levels, Mean
  concentration at 120 h: 509 ng/mL
120 h, oral 250/35/600 μg/kg regimen, dogs, n=6, read-out: fluralaner concentration levels, Median
  concentration at 120 h: 515 ng/mL
120 h, oral 250/35/600 μg/kg regimen, dogs, n=6, read-out: fluralaner concentration levels, Minimum
  concentration at 120 h: 465 ng/mL
144 h, oral 250 μg/kg Days 0-3, 35 μg/kg Days 4-9, 600 μg/kg Day 11, dogs, read-out: fluralaner concentration levels, individual animal
  concentration at 144 h: 497 ng/mL
144 h, oral 250/35/600 μg/kg regimen, dogs, n=6, read-out: fluralaner concentration levels, GeoMean
  concentration at 144 h: 491 ng/mL
144 h, oral 250/35/600 μg/kg regimen, dogs, n=6, read-out: fluralaner concentration levels, Maximum
  concentration at 144 h: 550 ng/mL
144 h, oral 250/35/600 μg/kg regimen, dogs, n=6, read-out: fluralaner concentration levels, Mean
  concentration at 144 h: 492 ng/mL
144 h, oral 250/35/600 μg/kg regimen, dogs, n=6, read-out: fluralaner concentration levels, Median
  concentration at 144 h: 496 ng/mL
144 h, oral 250/35/600 μg/kg regimen, dogs, n=6, read-out: fluralaner concentration levels, Minimum
  concentration at 144 h: 447 ng/mL
168 h, oral 250 μg/kg Days 0-3, 35 μg/kg Days 4-9, 600 μg/kg Day 11, dogs, read-out: fluralaner concentration levels, individual animal
  concentration at 168 h: 491 ng/mL
168 h, oral 250/35/600 μg/kg regimen, dogs, n=6, read-out: fluralaner concentration levels, GeoMean
  concentration at 168 h: 517 ng/mL
168 h, oral 250/35/600 μg/kg regimen, dogs, n=6, read-out: fluralaner concentration levels, Maximum
  concentration at 168 h: 580 ng/mL
